Laboratory results: ChEMBL document CHEMBL1201862, “PubChem BioAssay data set” (2004)
Calls of active or inactive are those of the source. Rule as the data show it: actives have a measured IC50 and inactives only a lower limit.

What was measured:
Format in all cases: functional
[1] = target: T1, Sentrin-specific protease 7 (Homo sapiens, UniProt Q9BQF6);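 also: Luminescence-based dose-response confirmation of ultra-high-throughput screening hits, measuring inhibition of SENP7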
T1 sequence (Q9BQF6 whole entry): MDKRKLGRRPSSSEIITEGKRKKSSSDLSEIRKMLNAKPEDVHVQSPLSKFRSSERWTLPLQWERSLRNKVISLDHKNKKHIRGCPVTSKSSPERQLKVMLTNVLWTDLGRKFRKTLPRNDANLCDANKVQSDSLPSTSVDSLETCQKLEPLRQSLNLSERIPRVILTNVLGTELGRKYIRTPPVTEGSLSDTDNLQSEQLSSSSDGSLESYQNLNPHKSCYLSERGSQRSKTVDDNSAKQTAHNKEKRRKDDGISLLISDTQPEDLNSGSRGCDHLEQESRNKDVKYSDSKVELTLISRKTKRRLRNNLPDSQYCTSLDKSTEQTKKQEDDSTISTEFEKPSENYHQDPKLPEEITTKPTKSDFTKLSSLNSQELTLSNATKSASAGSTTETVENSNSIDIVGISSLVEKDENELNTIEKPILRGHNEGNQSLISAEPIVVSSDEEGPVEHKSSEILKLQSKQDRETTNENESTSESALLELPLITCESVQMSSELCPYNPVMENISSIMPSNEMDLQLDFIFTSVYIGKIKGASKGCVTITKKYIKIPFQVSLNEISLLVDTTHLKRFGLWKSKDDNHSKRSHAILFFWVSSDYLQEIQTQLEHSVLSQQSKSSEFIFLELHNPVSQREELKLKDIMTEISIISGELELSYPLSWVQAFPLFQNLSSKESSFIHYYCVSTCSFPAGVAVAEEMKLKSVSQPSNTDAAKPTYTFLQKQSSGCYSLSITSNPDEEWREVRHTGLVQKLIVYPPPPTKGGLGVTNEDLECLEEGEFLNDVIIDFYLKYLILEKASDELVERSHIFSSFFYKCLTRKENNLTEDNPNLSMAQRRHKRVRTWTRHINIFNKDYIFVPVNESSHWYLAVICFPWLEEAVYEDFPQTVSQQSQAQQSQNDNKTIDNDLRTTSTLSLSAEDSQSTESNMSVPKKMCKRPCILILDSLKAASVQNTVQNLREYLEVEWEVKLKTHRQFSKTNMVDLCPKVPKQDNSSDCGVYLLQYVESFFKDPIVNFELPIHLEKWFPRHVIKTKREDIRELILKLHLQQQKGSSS

[2] = target: T2, Sentrin-specific protease 6 (Homo sapiens, UniProt Q9GZR1);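 also: Luminescence-based dose-response confirmatory assay of SENP6 inhibition, following up an ultra-high-throughput screen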
T2 sequence (Q9GZR1 whole entry): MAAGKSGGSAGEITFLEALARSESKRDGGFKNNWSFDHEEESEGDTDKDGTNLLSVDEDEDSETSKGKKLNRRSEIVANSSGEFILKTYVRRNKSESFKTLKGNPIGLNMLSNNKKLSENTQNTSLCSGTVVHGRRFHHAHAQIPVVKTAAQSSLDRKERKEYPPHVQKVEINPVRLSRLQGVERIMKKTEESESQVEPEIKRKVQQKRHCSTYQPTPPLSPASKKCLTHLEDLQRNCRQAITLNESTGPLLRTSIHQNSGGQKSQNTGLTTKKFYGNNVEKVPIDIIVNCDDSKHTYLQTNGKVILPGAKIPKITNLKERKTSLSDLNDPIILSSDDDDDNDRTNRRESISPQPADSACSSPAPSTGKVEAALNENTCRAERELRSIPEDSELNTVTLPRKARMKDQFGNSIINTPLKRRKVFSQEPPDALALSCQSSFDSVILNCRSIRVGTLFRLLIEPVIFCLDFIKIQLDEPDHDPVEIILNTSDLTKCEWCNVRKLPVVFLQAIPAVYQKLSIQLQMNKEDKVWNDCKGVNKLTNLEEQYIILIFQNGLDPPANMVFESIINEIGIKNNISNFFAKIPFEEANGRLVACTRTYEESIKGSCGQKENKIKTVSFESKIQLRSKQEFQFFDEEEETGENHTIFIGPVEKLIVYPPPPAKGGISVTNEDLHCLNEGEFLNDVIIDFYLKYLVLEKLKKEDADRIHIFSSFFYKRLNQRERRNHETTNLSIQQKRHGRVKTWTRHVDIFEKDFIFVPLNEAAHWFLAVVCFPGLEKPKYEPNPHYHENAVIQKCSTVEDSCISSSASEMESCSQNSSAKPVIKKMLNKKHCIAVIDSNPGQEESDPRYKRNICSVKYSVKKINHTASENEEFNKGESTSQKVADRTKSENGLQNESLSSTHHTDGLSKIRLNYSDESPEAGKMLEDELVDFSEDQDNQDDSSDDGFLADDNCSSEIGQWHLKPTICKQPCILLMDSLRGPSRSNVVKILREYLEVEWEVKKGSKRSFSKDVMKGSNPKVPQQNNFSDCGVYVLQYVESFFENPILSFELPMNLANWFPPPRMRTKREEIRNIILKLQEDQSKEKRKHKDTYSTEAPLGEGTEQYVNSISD

Caspase-3 = target: T3, Caspase-3 (Homo sapiens, UniProt P42574);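 also: Dose-response selectivity test against caspase-3 for candidate inhibitors of sentrin-specific proteases (SENPs)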
T3 sequence (P42574 whole entry): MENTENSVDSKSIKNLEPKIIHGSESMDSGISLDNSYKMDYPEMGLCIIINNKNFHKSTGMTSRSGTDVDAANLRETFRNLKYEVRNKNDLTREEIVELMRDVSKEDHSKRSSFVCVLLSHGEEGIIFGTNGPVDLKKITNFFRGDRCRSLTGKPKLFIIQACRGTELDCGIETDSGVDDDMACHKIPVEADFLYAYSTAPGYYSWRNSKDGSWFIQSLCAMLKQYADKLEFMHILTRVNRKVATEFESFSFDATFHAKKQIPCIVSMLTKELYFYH

Measured: IC50

Clc1ccc(C2=CSC3=Nc4cccc5cccc(c45)N23)cc1
active: [1] 5.65 µM | [2] 1.89 µM | Caspase-3 7.93 µM
